According to ChEMBL document CHEMBL4819006, “1,4,6-Trisubstituted imidazo[4,5-c]pyridines as inhibitors of Bruton's tyrosine kinase” (Eur J Med Chem, 2021):
Calls of active or inactive are those of the source. The calls are words filed in the database; no cut-off is given here.

What was measured:
[1] = target: T1, Mitogen-activated protein kinase; ERK1/ERK2 (Homo sapiens) (UniProt P27361+P28482); test: Inhibition of ERK1/2 in human Ramos cells assessed as reduction in ERK1/2 phosphorylation at 0.125 to 1 uM measured after 24 hrs by western blot assay; format: cell-based; settings: dose 0.125-1 µM
T1 sequence (P27361 whole entry, looked up): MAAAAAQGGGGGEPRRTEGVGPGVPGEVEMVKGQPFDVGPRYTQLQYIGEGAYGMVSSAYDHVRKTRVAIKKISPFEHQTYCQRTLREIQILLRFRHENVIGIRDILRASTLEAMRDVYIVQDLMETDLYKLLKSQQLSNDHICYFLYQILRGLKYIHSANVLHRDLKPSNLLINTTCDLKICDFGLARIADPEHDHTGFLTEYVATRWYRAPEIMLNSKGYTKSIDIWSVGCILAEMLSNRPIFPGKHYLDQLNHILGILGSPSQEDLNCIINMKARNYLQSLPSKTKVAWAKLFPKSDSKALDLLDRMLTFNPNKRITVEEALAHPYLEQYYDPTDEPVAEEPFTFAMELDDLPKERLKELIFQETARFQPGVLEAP
T1 sequence (P28482 whole entry, looked up): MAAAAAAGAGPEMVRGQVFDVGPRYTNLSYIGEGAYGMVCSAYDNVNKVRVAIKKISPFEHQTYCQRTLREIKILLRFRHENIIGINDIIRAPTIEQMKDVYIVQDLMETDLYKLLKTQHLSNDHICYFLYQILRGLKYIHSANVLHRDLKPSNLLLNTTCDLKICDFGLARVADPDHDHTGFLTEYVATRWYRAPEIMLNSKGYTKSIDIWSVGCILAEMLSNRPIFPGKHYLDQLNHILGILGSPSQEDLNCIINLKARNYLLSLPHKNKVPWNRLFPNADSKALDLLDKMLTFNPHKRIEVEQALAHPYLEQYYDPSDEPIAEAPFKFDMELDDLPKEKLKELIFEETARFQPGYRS

[2] = target: T1, Mitogen-activated protein kinase; ERK1/ERK2 (Homo sapiens); test: Inhibition of ERK1/2 in human UPF7U cells assessed as reduction in ERK1/2 phosphorylation at 0.125 to 1 uM measured after 24 hrs by western blot assay; format: cell-based; settings: dose 0.125-1 µM

- inhibition [1]: Active
- inhibition [2]: Active
Compound: c1cn2cc(-c3ccc4cn[nH]c4c3)nc(Nc3ccc(N4CCOCC4)cc3)c2n1
